Values quoted from earlier work, collected in patent US6653081B2, “Methods for monitoring antiretroviral therapy and guiding therapeutic decision in the treatment of HIV/AIDS” (ViroLogic, Inc., priority 2000, dated 2003).

Test system: codon 181 mutant HIV-1
Settings: cited from earlier work

For `CCc1cc(CCc2nc3ccccc3o2)c(=O)[nH]c1C` [L-696,229], the “susceptibility / activity in the presence of the Y181C mutation” value is listed as “reduced susceptibility”.

For `CCc1cc(NCc2nc3c(Cl)ccc(Cl)c3o2)c(O)nc1C` [L-697,661], the “susceptibility / activity in the presence of the Y181C mutation” value is given as “reduced susceptibility”.
